Experimental findings from US20230085307A1, “PYRIDAZINONE COMPOUND AND HERBICIDE” (NISSAN CHEMICAL CORPORATION, priority 2019, published 2023) are described below.

One experiment concerns late watergrass. The experiment in a line: Test Example 1: herbicidal activity, application before weed generation under submerged conditions (Table 16, symbol A). Type of experiment: in vivo, late watergrass (Echinochloa oryzicola). The following applies: for Herbicidal effect, A: late watergrass: amount of applied herbicide 320 g/ha. In outline:
(§1)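 Alluvial soil was flooded to 4 cm depth, weed seeds were sown mixed and 2.5-leaf rice seedlings were transplanted. On sowing day, the compound's emulsion, diluted in water to a set dose, was applied to the water surface. Plants grew at 25–30 °C and were scored 0–5 after three weeks.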

Another experiment has as its system Japanese bulrush. Kind of experiment: Test Example 1: herbicidal activity, application before weed generation under submerged conditions (Table 16, symbol B). The following applies: for Herbicidal effect, B: Japanese bulrush: amount of applied herbicide 320 g/ha. In kind it is in vivo, Japanese bulrush (Schoenoplectus juncoides). In outline:
as §1

For another experiment, the system named is oval-leafed pondweed. The experiment in a line: Test Example 1: herbicidal activity, application before weed generation under submerged conditions (Table 16, symbol C). In kind it is in vivo, oval-leafed pondweed (Monochoria vaginalis). The following applies: for Herbicidal effect, C: oval-leafed pondweed: amount of applied herbicide 320 g/ha. In short, it runs like this: as §1

The subject of experiment [1] is barnyard grass. Kind of experiment: Test Example 3: herbicidal effect by foliage application, Wagner pot (Table 18, symbol H). In kind it is in vivo, barnyard grass (Echinochloa crus-galli). The following applies: for herbicidal effect on barnyard grass (H): 320 g/ha. In outline:
(§2)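 Plants were sown in alluvial soil held under 0.1–0.5 cm standing water and grown 14 days in a greenhouse at 25–30 °C. An emulsifiable formulation, water-diluted to the set dose, was then sprayed onto the foliage, and effects were scored three weeks later using previously defined criteria.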

The test system of a further experiment is Chinese sprangletop. Kind of experiment: Test Example 3: herbicidal effect by foliage application, Wagner pot (Table 18, symbol D). Type of experiment: in vivo, chinese sprangletop (Leptochloa chinensis). The following applies: for herbicidal effect on Chinese sprangletop (D): 320 g/ha. In outline: as §2
The subject of the next experiment is rice flat sedge. Kind of experiment: Test Example 3: herbicidal effect by foliage application, Wagner pot (Table 18, symbol E). In kind it is in vivo, rice flat sedge (Cyperus iria). The following applies: for herbicidal effect on rice flat sedge (E): 320 g/ha. In outline:
as §2

Another experiment has as its system southern crabgrass. The experiment in a line: Test Example 5: herbicidal effect by foliage application, plastic box (Table 20, symbol F). In kind it is in vivo, southern crabgrass (Digitaria ciliaris). The following applies: 320 g/ha. In short, it runs like this: (§3)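 Plants were sown into sterilized diluvial soil under about 1.5 cm cover and kept in a greenhouse at 25° C. to 30° C. Fourteen days on, foliage received an even spray of the diluted emulsion. Herbicidal or crop effect was judged three weeks afterwards.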

For another experiment, the system named is green foxtail. The experiment in a line: Test Example 5: herbicidal effect by foliage application, plastic box (Table 20, symbol G). In kind it is in vivo, green foxtail (Setaria viridis). The settings on record: 320 g/ha. In outline:
as §3

Experiment [2] deals with barnyard grass. The experiment in a line: Test Example 5: herbicidal effect by foliage application, plastic box (Table 20, symbol H). In kind it is in vivo, barnyard grass (Echinochloa crus-galli). The settings on record: 320 g/ha. In outline: as §3
The next experiment concerns wild oat. The experiment in a line: Test Example 5: herbicidal effect by foliage application, plastic box (Table 20, symbol I). Type of experiment: in vivo, wild oat (Avena fatua). The following applies: 320 g/ha. In outline:
as §3

The test system of another experiment is blackgrass. The experiment in a line: Test Example 5: herbicidal effect by foliage application, plastic box (Table 20, symbol J). In kind it is in vivo, blackgrass (Alopecurus myosuroides). The following applies: 320 g/ha. In outline:
as §3

A further experiment deals with Italian ryegrass. Kind of experiment: Test Example 5: herbicidal effect by foliage application, plastic box (Table 20, symbol K). In kind it is in vivo, Italian ryegrass (Lolium multiflorum). The settings on record: 320 g/ha. In short, it runs like this: as §3
The subject of another experiment is windgrass. Kind of experiment: Test Example 5: herbicidal effect by foliage application, plastic box (Table 20, symbol L). In kind it is in vivo, windgrass (Apera spica-venti). The settings on record: 320 g/ha. In outline: as §3
The test system of the next experiment is velvetleaf. The experiment in a line: Test Example 5: herbicidal effect by foliage application, plastic box (Table 20, symbol M). Type of experiment: in vivo, velvetleaf (Abutilon theophrasti). The settings on record: 320 g/ha. In outline: as §3
The next experiment concerns redroot pigweed. Kind of experiment: Test Example 5: herbicidal effect by foliage application, plastic box (Table 20, symbol N). Type of experiment: in vivo, redroot pigweed (Amaranthus retroflexus). The following applies: 320 g/ha. In short, it runs like this:
as §3

In another experiment the test system is lambsquarters. The experiment in a line: Test Example 5: herbicidal effect by foliage application, plastic box (Table 20, symbol O). In kind it is in vivo, lambsquarters (Chenopodium album). The following applies: 320 g/ha. In short, it runs like this: as §3
In the next experiment the test system is chickweed. Kind of experiment: Test Example 5: herbicidal effect by foliage application, plastic box (Table 20, symbol P). Type of experiment: in vivo, common chickweed (Stellaria media). The settings on record: 320 g/ha. In outline: as §3
In another experiment the test system is persian speedwell. The experiment in a line: Test Example 5: herbicidal effect by foliage application, plastic box (Table 20, symbol R). Type of experiment: in vivo, Persian speedwell (Veronica persica). The settings on record: 320 g/ha. In outline:
as §3

[3] abbreviates: amount of applied herbicide 320 g/ha.
[4] abbreviates: foliage application, evaluated three weeks after application.
[5] abbreviates: foliage application, three weeks after application.
Setting [6] is: foliage application after 14-day growth, evaluated three weeks after application.

Structures are written as SMILES.

For `COc1ccc(Br)cc1-c1sc2ccc(Br)cc2c1-c1c(O)c(C)nn(C)c1=O` [2-129], the “Herbicidal effect on A: late watergrass (grade 0-5)” value with late watergrass (320 g/ha applied herbicide) is recorded as 5 (Herbicidal rate of 90% or more (almost completely withered)). In addition, the “Herbicidal effect on B: Japanese bulrush (grade 0-5)” value in the experiment on Japanese bulrush (320 g/ha applied herbicide) is on record as 0 (Herbicidal rate of 5% or less (almost no effect)). Also, the “Herbicidal effect on C: oval-leafed pondweed (grade 0-5)” value with oval-leafed pondweed (320 g/ha applied herbicide) is on record as 0 (Herbicidal rate of 5% or less (almost no effect)). The “herbicidal effect on H: barnyard grass” value in the experiment with barnyard grass [1] (setting [3]) was 3 (Herbicidal rate of 40% or more and less than 70%); in the experiment with barnyard grass [2] (setting [4]), 0 (Herbicidal rate of 5% or less (almost no effect)). Also, the “herbicidal effect on D: Chinese sprangletop” value with Chinese sprangletop (setting [3]) is reported as 0 (Herbicidal rate of 5% or less (almost no effect)). The “herbicidal effect on E: rice flat sedge” value in the experiment on rice flat sedge (setting [3]) is 0 (Herbicidal rate of 5% or less (almost no effect)). Also, the “herbicidal effect on F: southern crabgrass” value in the experiment with southern crabgrass (setting [4]) was 0 (Herbicidal rate of 5% or less (almost no effect)). Further, the “herbicidal effect on G: green foxtail” value with green foxtail (setting [4]) is on record as 0 (Herbicidal rate of 5% or less (almost no effect)). For the same molecule, the “herbicidal effect on I: wild oat” value in the experiment with wild oat (setting [4]) is 0 (Herbicidal rate of 5% or less (almost no effect)). Further, the “herbicidal effect on J: blackgrass” value in the experiment with blackgrass (setting [4]) is reported as 0 (Herbicidal rate of 5% or less (almost no effect)). In the experiment with Italian ryegrass (setting [4]), the “herbicidal effect on K: Italian ryegrass” value is 0 (Herbicidal rate of 5% or less (almost no effect)). Besides, in the experiment on windgrass (setting [4]), the “herbicidal effect on L: windgrass” value was 0 (Herbicidal rate of 5% or less (almost no effect)). In addition, in the experiment on velvetleaf (setting [4]), the “herbicidal effect on M: velvetleaf” value is on record as 0 (Herbicidal rate of 5% or less (almost no effect)). In the experiment on redroot pigweed (setting [4]), the “herbicidal effect on N: redroot pigweed” value is 0 (Herbicidal rate of 5% or less (almost no effect)). Also, the “herbicidal effect on O: lambsquarters” value in the experiment on lambsquarters (setting [4]) is 2 (Herbicidal rate of 20% or more and less than 40%). Besides, the “herbicidal effect on P: chickweed” value with chickweed (setting [4]) is recorded as 0 (Herbicidal rate of 5% or less (almost no effect)). Further, in the experiment on persian speedwell (setting [4]), the “herbicidal effect on R: persian speedwell” value is recorded as 0 (Herbicidal rate of 5% or less (almost no effect)).
Consider `COc1ccccc1-c1sc2cc(CO)ccc2c1-c1c(O)c(C)nn(C)c1=O` [3-135], for which the “Herbicidal effect, A: late watergrass” value in the experiment on late watergrass was 2 (Herbicidal rate of 20% or more and less than 40%). Also, the “Herbicidal effect, B: Japanese bulrush” value in the experiment with Japanese bulrush is 2 (Herbicidal rate of 20% or more and less than 40%). Also, the “Herbicidal effect, C: oval-leafed pondweed” value in the experiment with oval-leafed pondweed is on record as 0 (Herbicidal rate of 5% or less (almost no effect)). Further, the “herbicidal effect on barnyard grass (H)” value in the experiment with barnyard grass [1] is 4 (Herbicidal rate of 70% or more and less than 90%). In the experiment with Chinese sprangletop, the “herbicidal effect on Chinese sprangletop (D)” value was 3 (Herbicidal rate of 40% or more and less than 70%). The “herbicidal effect on rice flat sedge (E)” value in the experiment on rice flat sedge was 2 (Herbicidal rate of 20% or more and less than 40%). Further, the “F: southern crabgrass, herbicidal effect grade” value with southern crabgrass (setting [5]) is 4 (Herbicidal rate of 70% or more and less than 90%). The “G: green foxtail, herbicidal effect grade” value in the experiment on green foxtail (setting [5]) is reported as 5 (Herbicidal rate of 90% or more (almost completely withered)). In the experiment on barnyard grass [2] (setting [5]), the “H: barnyard grass, herbicidal effect grade” value is 3 (Herbicidal rate of 40% or more and less than 70%). Besides, the “I: wild oat, herbicidal effect grade” value in the experiment with wild oat (setting [5]) was 4 (Herbicidal rate of 70% or more and less than 90%). In addition, the “J: blackgrass, herbicidal effect grade” value in the experiment on blackgrass (setting [5]) was 3 (Herbicidal rate of 40% or more and less than 70%). For the same molecule, the “K: Italian ryegrass, herbicidal effect grade” value in the experiment with Italian ryegrass (setting [5]) is 3 (Herbicidal rate of 40% or more and less than 70%). Also, the “L: windgrass, herbicidal effect grade” value in the experiment on windgrass (setting [5]) was 2 (Herbicidal rate of 20% or more and less than 40%). In the experiment on velvetleaf (setting [5]), the “M: velvetleaf, herbicidal effect grade” value is 3 (Herbicidal rate of 40% or more and less than 70%). The “N: redroot pigweed, herbicidal effect grade” value in the experiment with redroot pigweed (setting [5]) was 4 (Herbicidal rate of 70% or more and less than 90%). In the experiment with lambsquarters (setting [5]), the “O: lambsquarters, herbicidal effect grade” value is 2 (Herbicidal rate of 20% or more and less than 40%). Also, the “P: chickweed, herbicidal effect grade” value in the experiment on chickweed (setting [5]) is 4 (Herbicidal rate of 70% or more and less than 90%). Moreover, the “R: persian speedwell, herbicidal effect grade” value in the experiment with persian speedwell (setting [5]) was 4 (Herbicidal rate of 70% or more and less than 90%).
Consider `CCCC(=O)Oc1c(C)nn(C)c(=O)c1-c1c(-c2ccccc2C)sc2c(Cl)cccc12` [4-061], for which the “Herbicidal effect, A: late watergrass” value with late watergrass is 3 (Herbicidal rate of 40% or more and less than 70%). Moreover, the “Herbicidal effect, B: Japanese bulrush” value in the experiment with Japanese bulrush is on record as 0 (Herbicidal rate of 5% or less (almost no effect)). The “Herbicidal effect, C: oval-leafed pondweed” value in the experiment with oval-leafed pondweed is listed as 0 (Herbicidal rate of 5% or less (almost no effect)). Further, the “herbicidal effect on barnyard grass (H)” value with barnyard grass [1] was 3 (Herbicidal rate of 40% or more and less than 70%). Also, the “herbicidal effect on Chinese sprangletop (D)” value in the experiment on Chinese sprangletop was 3 (Herbicidal rate of 40% or more and less than 70%). Also, the “herbicidal effect on rice flat sedge (E)” value in the experiment with rice flat sedge was 4 (Herbicidal rate of 70% or more and less than 90%). In the experiment on southern crabgrass (setting [6]), the “herbicidal effect on F: southern crabgrass (evaluation grade 0-5)” value was 0 (Herbicidal rate of 5% or less (almost no effect)). Besides, the “herbicidal effect on G: green foxtail (evaluation grade 0-5)” value with green foxtail (setting [6]) is 0 (Herbicidal rate of 5% or less (almost no effect)). Further, the “herbicidal effect on H: barnyard grass (evaluation grade 0-5)” value with barnyard grass [2] (setting [6]) is reported as 0 (Herbicidal rate of 5% or less (almost no effect)). Besides, the “herbicidal effect on I: wild oat (evaluation grade 0-5)” value in the experiment on wild oat (setting [6]) is 0 (Herbicidal rate of 5% or less (almost no effect)). Moreover, the “herbicidal effect on J: blackgrass (evaluation grade 0-5)” value in the experiment on blackgrass (setting [6]) is on record as 0 (Herbicidal rate of 5% or less (almost no effect)). Further, the “herbicidal effect on K: Italian ryegrass (evaluation grade 0-5)” value in the experiment on Italian ryegrass (setting [6]) is 0 (Herbicidal rate of 5% or less (almost no effect)). Also, in the experiment with windgrass (setting [6]), the “herbicidal effect on L: windgrass (evaluation grade 0-5)” value was 0 (Herbicidal rate of 5% or less (almost no effect)). The “herbicidal effect on M: velvetleaf (evaluation grade 0-5)” value with velvetleaf (setting [6]) is on record as 0 (Herbicidal rate of 5% or less (almost no effect)). The “herbicidal effect on N: redroot pigweed (evaluation grade 0-5)” value in the experiment with redroot pigweed (setting [6]) was 2 (Herbicidal rate of 20% or more and less than 40%). In addition, the “herbicidal effect on O: lambsquarters (evaluation grade 0-5)” value in the experiment on lambsquarters (setting [6]) is given as 0 (Herbicidal rate of 5% or less (almost no effect)). In the experiment with chickweed (setting [6]), the “herbicidal effect on P: chickweed (evaluation grade 0-5)” value was 3 (Herbicidal rate of 40% or more and less than 70%). For the same molecule, the “herbicidal effect on R: persian speedwell (evaluation grade 0-5)” value in the experiment with persian speedwell (setting [6]) is 2 (Herbicidal rate of 20% or more and less than 40%).
